From patent US8912146B2, “Derivatives of APF and methods of use” (University of Maryland, Baltimore, priority 2008, dated 2014)
“Also recorded” adds a separate entry of the source.

Legend:
[1] = test system: primary normal human bladder epithelial cells; conditions: Keay et al., 2004; cited from earlier work
[2] = test system: Hs839.T melanoma cells; test: 3H-thymidine incorporation in melanoma cells; assay type: cell-based; conditions: for inhibition of melanoma cell proliferation: compared to cell medium alone (p<0.00001)
Protocol: Ovarian carcinoma (Caov-3), prostate carcinoma (LNCaP), melanoma (Hs839.T), pancreatic carcinoma (PANC-1), bladder carcinoma (T24, RT4 and TCCSuP), kidney carcinoma (ACHN), cervical carcinoma (HeLa), lung carcinoma (A549), colon carcinoma (WiDr), and breast carcinoma (Bt-474) cells were all purchased from the American Type Culture Collection (ATCC). Caov-3, HS839.T, PANC-1, and BT-474 cells were grown in DMEM medium (with 4 mM L-glutamine—Gibco BRL) containing 10% heat-inactivated fetal calf serum, 4.5 g/L glucose, 1.5 g/L sodium bicarbonate and 1% antibiotic/antimycotic solution (all supplements from Sigma except sodium bicarbonate which is from Gibco BRL). LNCaP cells were grown in RPMI medium (with 2 mM L-glutamine—Gibco BRL) containing10% heat-incativated fetal calf serum, 10 mM HEPES buffer, 1 mM sodium pyruvate, 4.5 g/L glucose, 1.5 g/L sodium bicarbonate, and 1% antibiotic/antimycotic solution (all supplements from Sigma except sodium bicarbonate which is from Gibco BRL). T24 and RT4 cells were grown in McCoy's 5A medium (Gibco BRL) containing 10% heat-inactivated fetal calf serum, 1% L-glutamine, 2.2 g/L sodium bicarbonate, and 1% antibiotic/antimycotic solution (all supplements from Sigma except sodium bicarbonate which is from Gibco BRL). TCCSuP, HeLa, and WiDr cells were grown in MEM (Gibco BRL) containing 10% heat-inactivated fetal calf serum, 1% L-glutamine, 1 mM sodium pyruvate, and 1% antibiotic/antimycotic solution (all supplements from Sigma). ACHN cells were grown in the same medium as TCCSuP and HeLa cells with the exception that it also contained 1.5 g/L sodium bicarbonate (Gibco BRL). A549 cells were grown in F12 medium (Gibco BRL) containing 10% heat-inactivated fetal calf serum, 1% L-glutamine, and 1% antibiotic/antimycotic solution (all supplements from Sigma).
Cancer (carcinoma or melanoma) cell proliferation was measured by ^3H-thymidine incorporation into each type of cancer cell, plating 3.0×10^3 cells/well (A549 cells) or 1.5×10^3 cells/well (all other cancer cells) onto a 96 well cell culture plate (VWR 29442-054), in 150 ul/well of the respective normal growth medium for each cell type (see above). All APF congeners were resuspended as described for normal bladder epithelial cells, except using the specific serum-free medium appropriate for each cell type, and the remainder of the assay was performed as described for normal bladder cells, above.
(§1) Significance of the difference in mean values between groups was determined by an analysis of variance.
(§2) Cell proliferation was measured by ^3H-thymidine incorporation into each cell type, plating cells in […] of their respective medium (see above) onto a 96-well cell culture plate (Corning, N.Y.) at a predetermined optimal cell density for APF inhibition of cell proliferation: Caov-3, PANC-1, T24, HeLa, and HS839.T cells were plated at a density of 1.5×10^3 cells/well; A549 cells were plated at a density of 3×10^3 cells/well. On the next day, cell growth medium was removed and replaced with serum-free medium appropriate for each cell type. […] Cells were then incubated at 37° C. in a 5% CO2 atmosphere for 48 hours, after which cell contents were harvested, methanol-fixed onto glass fiber filter paper, and the amount of radioactivity incorporated determined. […]

[3] = test system: carcinoma cell lines (WiDr, HeLa, PANC-1, CaOv3, BT474, ACHN, T24, A549); test: 3H-thymidine incorporation in carcinoma cell lines; assay type: cell-based; conditions: 48 hrs; for inhibition of carcinoma cell line proliferation: compared to cell medium alone (p<0.00001)
Protocol: Ovarian carcinoma (Caov-3), prostate carcinoma (LNCaP), melanoma (Hs839.T), pancreatic carcinoma (PANC-1), bladder carcinoma (T24, RT4 and TCCSuP), kidney carcinoma (ACHN), cervical carcinoma (HeLa), lung carcinoma (A549), colon carcinoma (WiDr), and breast carcinoma (Bt-474) cells were all purchased from the American Type Culture Collection (ATCC). Caov-3, HS839.T, PANC-1, and BT-474 cells were grown in DMEM medium (with 4 mM L-glutamine—Gibco BRL) containing 10% heat-inactivated fetal calf serum, 4.5 g/L glucose, 1.5 g/L sodium bicarbonate and 1% antibiotic/antimycotic solution (all supplements from Sigma except sodium bicarbonate which is from Gibco BRL). LNCaP cells were grown in RPMI medium (with 2 mM L-glutamine—Gibco BRL) containing10% heat-incativated fetal calf serum, 10 mM HEPES buffer, 1 mM sodium pyruvate, 4.5 g/L glucose, 1.5 g/L sodium bicarbonate, and 1% antibiotic/antimycotic solution (all supplements from Sigma except sodium bicarbonate which is from Gibco BRL). […]
Cancer (carcinoma or melanoma) cell proliferation was measured by ^3H-thymidine incorporation into each type of cancer cell, plating 3.0×10^3 cells/well (A549 cells) or 1.5×10^3 cells/well (all other cancer cells) onto a 96 well cell culture plate (VWR 29442-054), in 150 ul/well of the respective normal growth medium for each cell type (see above). […]
as §1
as §2, with “cells/well.” for “cells/well. On the next day, cell growth medium was removed and replaced with serum-free medium appropriate for each cell type.”

[4] = test system: Akt/GSK3/beta catenin signaling in T24 bladder carcinoma cells; test: Western blot / qRT-PCR of Akt/GSK3/beta catenin signaling in T24 cells; assay type: cell-based; conditions: 50 nM
Protocol: Gene expression was determined by quantitative RT-PCR, and specific protein expression or phosphorylation was determined by Western blot. p53 mRNA and protein expression served as positive controls for APF activity. Beta actin expression served as a standard control for Western blot analyses (see FIGS. 38-40).

[5] = nonelectroporated T24 control cells, p<0.05

IC50 in melanoma cells ([2]; 48 hrs, listed as as-APF)	IC50 in carcinoma cell lines ([3]; listed as as-APF)	Molecule	activity in biological antiproliferation assays, previously determined [1]	inhibition of melanoma cell proliferation ([2]; 48 hrs)	inhibitor concentration at which significant inhibition occurred, melanoma cells vs carcinoma cells ([2]; listed as as-APF)	inhibitor concentration at which significant inhibition occurred, melanoma cells vs carcinoma cells ([2]; listed as asialo-APF)	inhibition of carcinoma cell line proliferation [3]	mRNA and protein expression of total Akt, GSK3beta, beta catenin ([4]; T24 cells, p>0.05)	Akt phosphorylation (serine 473 and threonine 308) [4, 5]	GSK3beta phosphorylation (tyrosine 216) [4, 5]	beta catenin phosphorylation (serine 33/37 and threonine 41) [4, 5]	beta catenin phosphorylation (serine 45) [4, 5]	inhibition of melanoma cell proliferation ([2]; 48 hrs, listed as negative control peptide)	inhibition of carcinoma cell line proliferation ([3]; listed as negative control peptide)
low to mid nanomolar range	low to mid nanomolar range	CC(=O)NC1C(O[C@@H]2OC(CO)[C@H](O)C(O)C2O)[C@@H](O)C(CO)O[C@@H]1OC(C)[C@H](N)C(=O)NC(C(=O)N1CCC[C@H]1C(=O)NC(C)C(=O)N[C@@H](C)C(=O)NC(C(=O)N[C@H](C(=O)NC(C(=O)N[C@@H](C)C(=O)O)C(C)C)C(C)C)C(C)C)C(C)C (stereo partly drawn) [Derivative 1, Galβ1-3GalNAcα-O-TVPAAVVVA]	essentially equipotent	significantly inhibited proliferation	1-2 orders of magnitude higher	2 orders of magnitude higher	significantly inhibited proliferation	neither mRNA nor protein expression of total Akt, GSK3beta, or beta catenin changed significantly	significantly decreased	significantly decreased	significantly increased	significantly decreased		
		TVPAAVVVA [nonglycosylated nonapeptide, reference compound]	completely inactive										no effect; also recorded: none of these cell lines was inhibited	no effect; also recorded: none of these cell lines was inhibited
